US20070232658A1, “Protein Kinase C Inhibitors for the Treatment of Autoimmune Diseases and of Transplant Rejiction” (priority 2004, published 2007)
Values joined by “and” are separate entries in the source; they are usually repeats but may differ in a detail not shown here. Identical values can stand only once.

Assays:
[1] = test system: heart allograft rejection; assay: Rat heart transplantation; format: in vivo; settings: rat heart transplant, Lewis/DA, 30 mg/kg bid
Protocol: The strain combination used: Male Lewis (RT^1 haplotype) and DA (RT^1 haplotype). The animals are anaesthetised using inhalational isofluorane. […] The aorta is ligated and divided distal to the first branch and the brachiocephalic trunk is divided at the first bifurcation. The left pulmonary artery is ligated and divided and the right side divided but left open. All other vessels are dissected free, ligated and divided and the donor heart is removed into iced saline.
The recipient is prepared by dissection and cross-clamping of the infra-renal abdominal aorta and vena cava. The graft is implanted with end-to-side anastomoses, using 10/0 monofilament suture, between the donor brachiocephalic trunk and the recipient aorta and the donor right pulmonary artery to the recipient vena cava. The clamps are removed, the graft tethered retroabdominally, the abdominal contents washed with warm saline and the animal is closed and allowed to recover under a heating lamp. Graft survival is monitored by daily palpation of the beating donor heart through the abdominal wall. Rejection is considered to be complete when heart beat stops. Increases of graft survival are obtained in animals treated with a compound of formula I, II, III or IV or a pharmaceutically acceptable salt or solvate thereof administered orally at a daily dose of 10 to 30 mg/kg bid. […]

[2] = test system: Balb/c spleen cells stimulated by irradiated or mitomycin C treated CBA spleen cells; assay: Murine mixed lymphocyte reaction (MLR); format: cell-based; settings: Mus musculus, 120 h, 5 days co-incubation, labeled precursor incorporation into DNA, read-out: IC50 (concentration resulting in 50% inhibition of cell proliferation)
Protocol: Spleen cells (0.5×10^6) from Balb/c mice (female, 8-10 weeks) are co-incubated for 5 days with 0.5×10^6 irradiated (2000 rads) or mitomycin C treated spleen cells from CBA mice (female, 8-10 weeks). The irradiated allogeneic cells induce a proliferative response in the Balb/c spleen cells which can be measured by labeled precursor incorporation into the DNA. […] The antiproliferative effect of the compounds on the Balb/c cells is measured at various dilutions and the concentration resulting in 50% inhibition of cell proliferation (IC50) is calculated.

SMILES | prolongation of graft survival [1] | IC50 [2]
Cn1cc(C2=C(c3cn(C4CCN(Cc5ccccn5)CC4)c4ccccc34)C(=O)NC2=O)c2ccccc21 [Compound A, 3-(1-methyl-1H-indol-3-yl)-4-[1-{(1-pyridin-2-ylmethyl)-piperidin-4-yl}-1H-indol-3-yl]-pyrrole-2,5-dione] | 14 days and 25 days and 26 days | 
Cn1cc(C2=C(c3cn(C4CCNCC4)c4ccccc34)C(=O)NC2=O)c2ccccc21 [Compound B, 3-(1-methyl-1H-indol-3-yl)-4-[1-(piperidin-4-yl)-1H-indol-3-yl]-pyrrole-2,5-dione] |  | 195 nM
